Assay results from US7741344B2, “Process for preparing purified S-BEL and R-BEL and compositions thereof” (Washington University in St. Louis, priority 2002, dated 2010).

Target: T1, recombinant human iPLA2γ (Homo sapiens, UniProt Q9NP80)
T1 construct: Recombinant full-length iPLA2γ was expressed in Sf9 cells; made in house; host or cells: Sf9 cells (washed membrane fraction, not purified)
T1 sequence (Q9NP80 1-782): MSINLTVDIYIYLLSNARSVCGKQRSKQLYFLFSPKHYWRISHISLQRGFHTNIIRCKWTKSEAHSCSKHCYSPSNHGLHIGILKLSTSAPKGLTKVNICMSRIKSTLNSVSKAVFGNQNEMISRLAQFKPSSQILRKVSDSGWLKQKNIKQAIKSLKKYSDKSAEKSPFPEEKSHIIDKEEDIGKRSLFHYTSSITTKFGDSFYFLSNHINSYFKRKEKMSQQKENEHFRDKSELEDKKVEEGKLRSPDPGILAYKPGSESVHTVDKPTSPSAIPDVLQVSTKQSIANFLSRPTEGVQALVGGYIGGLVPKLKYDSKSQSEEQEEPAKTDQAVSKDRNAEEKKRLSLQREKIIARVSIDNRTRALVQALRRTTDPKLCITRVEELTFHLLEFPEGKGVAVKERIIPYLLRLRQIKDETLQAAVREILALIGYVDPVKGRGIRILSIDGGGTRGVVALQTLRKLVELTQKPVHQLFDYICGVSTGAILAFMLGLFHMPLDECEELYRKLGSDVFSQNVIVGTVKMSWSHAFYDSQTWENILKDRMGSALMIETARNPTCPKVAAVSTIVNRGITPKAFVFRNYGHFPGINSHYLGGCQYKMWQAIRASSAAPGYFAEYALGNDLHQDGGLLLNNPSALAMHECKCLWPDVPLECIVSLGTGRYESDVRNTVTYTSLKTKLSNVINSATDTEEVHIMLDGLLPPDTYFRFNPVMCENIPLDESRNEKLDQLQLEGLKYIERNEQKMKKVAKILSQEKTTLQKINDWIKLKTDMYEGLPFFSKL
Assay: Assay of iPLA2γ inhibition by BEL (Sf9 cell membranes, radiolabeled phospholipid substrate)
Assay type: biochemical
Protocol: Recombinant iPLA2 Enzymes—Recombinant iPLA2β was expressed and purified from Sf9 cells as previously described (35). Recombinant full-length iPLA2γ was expressed in Sf9 cells and the membrane fraction was washed and isolated as previously described (24).
Assay of iPLA2β and iPLA2γ Inhibition by BEL—Purified recombinant iPLA2β or Sf9 cell membranes containing recombinant iPLA2γ were incubated with (R) BEL, (S) BEL, racemic BEL, or ethanol vehicle for 3 mm at 22° C. in the presence of 100 mM Tris-HCl (pH 7.0) and 4 mM EGTA (for iPLA2β) or 100 mM Tris-acetate (pH 8.0) and 4 mM EGTA (for iPLA2γ). The concentration of BEL used for each test ranged from 0 to 16 μM. L-α-1-palmitoyl-2-[1^14C]-arachidonyl-phosphatidylcholine (5 μM final concentration) or L-α-1-palmitoyl-2-[1-^14C]-oleoyl-phosphatidylcholine (5 μM final concentration) in ethanol was then added to each sample and incubated at 37° C. for 2 min. Reactions were terminated by extraction of radiolabeled products into butanol, and reactants and products were separated by thin layer chromatography using Whatman LK6D 60 Å Silica Gel plates with petroleum ether/ethyl ether/acetic acid (70:30:1) as the mobile phase. Regions corresponding to the migration of a fatty acid standard visualized by iodine staining were scraped into vials and radioactivity was quantified by scintillation spectrometry.
Panel A—Purified recombinant iPLA2β (1 μg/ml) in 100 mM Tris-HCl, pH 7.3 containing 1 mM EGTA was preincubated at 22° C. for 3 mm in the presence of the indicated concentrations of (R)-, (S)-, or rac-BEL or ethanol vehicle alone (1% final concentration). Radiolabeled substrate (L-α-1-palmitoyl-2-[1-^14C]-arachidonyl-phosphatidylcholine, 5 μM final concentration) was then added to each reaction and incubated at 37° C. for 2 min. Reactions were terminated by extraction of remaining substrate and products into butanol, separation by TLC, and quantification of released radiolabeled fatty acid by scintillation spectrometry as described in Experimental Procedures. Results are representative of four separate tests. Panel B—Washed Sf9 cell membranes containing recombinant human iPLA2γ were preincubated for 3 min with the indicated concentrations of (R)-, (S)-, or racemic BEL or ethanol vehicle alone (1% final concentration) in 100 mM Tris-acetate, pH 8.0 containing 1 mM EGTA at 22° C. Radiolabeled substrate (L-α-1-palmitoyl-2-[1-^14C]-oleoyl-phosphatidylcholine, 5 μM final concentration) was then added to each reaction and incubated at 37° C. for 2 min. Reactions were terminated by extraction of remaining substrate and products into butanol, separation by TLC, and quantification of released radiolabeled fatty acid by scintillation spectrometry as described in “Experimental Procedures”. Results are representative of four separate tests.

Row | SMILES | inhibitory potency on iPLA2γ relative to the enantiomers (FIG. 4B) | IC50 (read-out: IC50 for iPLA2γ (range stated jointly for iPLA2β and iPLA2γ)) [nM] | selectivity for inhibition of iPLA2γ [fold] | inhibition of iPLA2γ, fold more potent than (S)-BEL (3 min preincubation, FIG. 4B) | selectivity for iPLA2γ than iPLA2β (in words)
1 | O=C1OC(=CBr)CCC1c1cccc2ccccc12 (racemic) [rac-BEL, Racemic (E)-6-(bromomethylene)-3-(1-naphthalenyl)-2H-tetrahydropyran-2-one] | intermediate of that of (R)-BEL and (S)-BEL | 500 to 3000 | – | – | –
2 | O=C1O/C(=C/Br)CC[C@@H]1c1cccc2ccccc12 [(R)-BEL, (R)(E)-6-(bromomethylene)-3-(1-naphthalenyl)-2H-tetrahydropyran-2-one] | – | – | 10 | approximately 10 fold | approximately an order of magnitude more selective
